Source: patent publication US7329652B2, “Diaminotriazole compounds useful as protein kinase inhibitors” (Vertex Pharamaceuticals Incorporated, priority 2004, dated 2008)

Legend:
JAK-2 enzyme = JAK-2 enzyme (Homo sapiens, UniProt O60674); assay: JAK2 inhibition assay (radiometric 33P filter assay); assay type: biochemical; conditions: 15 μM poly(Glu)4Tyr, 12 μM ATP; read-out: JAK2 inhibition data (Ki)
How it was run: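 JAK-2 enzyme in 100 mM HEPES pH 7.4, 1 mM DTT, 10 mM MgCl2, 25 mM NaCl, 0.01% BSA, with final 12 μM [33P]ATP and 15 μM poly(Glu)4Tyr. Reactions ran 20 min at 25 °C and were stopped with TCA. 33P incorporation was counted after glass-fibre filtration.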

JAK3 = molecular target: T1, JAK3 (Homo sapiens, UniProt P52333); assay: JAK3 inhibition assay (radiometric 33P filter assay); assay type: biochemical; conditions: 1 μM poly(Glu)4Tyr, 5 μM ATP, 1 nM JAK3, 25° C.; read-out: JAK3 inhibition data (Ki)
T1 sequence (P52333 1-1124): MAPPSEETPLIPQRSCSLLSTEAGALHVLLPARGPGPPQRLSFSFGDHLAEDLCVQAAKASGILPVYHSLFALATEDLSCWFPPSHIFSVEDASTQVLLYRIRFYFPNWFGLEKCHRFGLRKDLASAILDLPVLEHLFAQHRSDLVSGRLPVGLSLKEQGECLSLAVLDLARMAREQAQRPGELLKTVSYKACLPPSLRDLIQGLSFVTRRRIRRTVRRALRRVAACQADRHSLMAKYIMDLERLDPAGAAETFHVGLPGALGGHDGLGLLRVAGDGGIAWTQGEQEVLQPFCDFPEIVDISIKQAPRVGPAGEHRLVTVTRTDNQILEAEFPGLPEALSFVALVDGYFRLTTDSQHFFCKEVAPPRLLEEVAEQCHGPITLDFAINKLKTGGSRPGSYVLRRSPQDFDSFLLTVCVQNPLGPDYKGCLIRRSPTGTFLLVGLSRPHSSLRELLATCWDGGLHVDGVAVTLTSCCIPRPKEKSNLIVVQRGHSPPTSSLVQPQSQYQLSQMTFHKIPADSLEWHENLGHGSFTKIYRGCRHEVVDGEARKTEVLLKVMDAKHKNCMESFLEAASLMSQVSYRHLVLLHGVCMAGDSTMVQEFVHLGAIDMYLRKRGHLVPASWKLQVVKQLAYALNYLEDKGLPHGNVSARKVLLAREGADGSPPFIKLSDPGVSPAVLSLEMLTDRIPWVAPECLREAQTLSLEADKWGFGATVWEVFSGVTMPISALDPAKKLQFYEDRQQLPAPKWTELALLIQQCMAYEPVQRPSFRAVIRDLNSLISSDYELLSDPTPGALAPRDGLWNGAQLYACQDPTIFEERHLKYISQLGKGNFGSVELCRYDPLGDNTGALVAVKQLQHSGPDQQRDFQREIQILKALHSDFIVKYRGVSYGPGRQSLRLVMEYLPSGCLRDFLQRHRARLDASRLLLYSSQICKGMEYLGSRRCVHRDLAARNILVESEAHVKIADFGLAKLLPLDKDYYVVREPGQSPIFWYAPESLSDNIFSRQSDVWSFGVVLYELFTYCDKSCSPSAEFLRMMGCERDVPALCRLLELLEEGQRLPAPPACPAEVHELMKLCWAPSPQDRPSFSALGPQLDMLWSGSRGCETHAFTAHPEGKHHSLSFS
How it was run: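 Final conditions were 1 nM JAK3, 5 μM ATP (200 uCi/μmole) and 1 μM poly(Glu)4Tyr in 100 mM HEPES pH 7.4, 10 mM MgCl2, 25 mM NaCl, 1 mM DTT and 0.01% BSA. After 20 min at 25 °C the reaction was stopped with TCA. 33P incorporation was counted after glass-fibre filtration.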

Sequence of JAK-2 enzyme (O60674 whole entry, species assumed): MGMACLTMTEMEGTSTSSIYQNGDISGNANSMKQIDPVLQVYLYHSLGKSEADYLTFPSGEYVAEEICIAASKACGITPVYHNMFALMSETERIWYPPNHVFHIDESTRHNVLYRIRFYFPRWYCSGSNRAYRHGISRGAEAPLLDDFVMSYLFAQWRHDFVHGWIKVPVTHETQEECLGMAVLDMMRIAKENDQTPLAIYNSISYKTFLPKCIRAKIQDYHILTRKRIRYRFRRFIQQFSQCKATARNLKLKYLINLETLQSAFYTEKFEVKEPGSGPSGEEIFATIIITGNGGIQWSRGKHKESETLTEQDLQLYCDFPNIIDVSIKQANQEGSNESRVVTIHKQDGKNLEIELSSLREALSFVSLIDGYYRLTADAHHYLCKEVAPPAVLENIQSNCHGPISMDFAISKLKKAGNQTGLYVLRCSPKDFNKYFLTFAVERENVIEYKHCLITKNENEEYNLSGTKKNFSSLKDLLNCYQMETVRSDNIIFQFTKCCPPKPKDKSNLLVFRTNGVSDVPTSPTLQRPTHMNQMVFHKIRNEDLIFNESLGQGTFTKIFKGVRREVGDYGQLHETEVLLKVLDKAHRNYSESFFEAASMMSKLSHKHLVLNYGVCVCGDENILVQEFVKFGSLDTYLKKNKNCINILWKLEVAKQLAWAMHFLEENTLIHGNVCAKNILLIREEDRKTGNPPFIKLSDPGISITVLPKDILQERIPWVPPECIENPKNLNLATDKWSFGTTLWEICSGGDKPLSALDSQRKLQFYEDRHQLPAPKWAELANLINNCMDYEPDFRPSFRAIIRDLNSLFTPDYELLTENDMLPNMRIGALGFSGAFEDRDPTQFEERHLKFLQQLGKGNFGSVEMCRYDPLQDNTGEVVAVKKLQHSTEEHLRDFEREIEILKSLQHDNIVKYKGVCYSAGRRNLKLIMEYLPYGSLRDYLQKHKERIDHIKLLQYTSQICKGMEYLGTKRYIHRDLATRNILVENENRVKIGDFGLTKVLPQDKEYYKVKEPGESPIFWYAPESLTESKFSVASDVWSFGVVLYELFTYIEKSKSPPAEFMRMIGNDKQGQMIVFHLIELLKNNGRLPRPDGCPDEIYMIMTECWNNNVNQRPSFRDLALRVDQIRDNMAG

| Ki (JAK-2 enzyme) [nM] | Ki (JAK3) [nM] | Compound |
| --- | --- | --- |
| 50 to 500 | 50 to 500 | CCCCOC(=O)Nc1ccc(Nc2nc(N)n(-c3ccnc(N4CCCN(C(C)=O)CC4)c3)n2)cc1 [Compound 174] |
| 50 to 500 | 50 to 500 | CC(=O)N1CCCN(c2cc(-n3nc(Nc4ccc(NC(=O)OCC(C)C)cc4)nc3N)ccn2)CC1 [Compound 175] |
| 50 to 500 | 50 to 500 | CC(=O)N1CCCN(c2cc(-n3nc(Nc4ccc(NC(=O)OCC(C)(C)C)cc4)nc3N)ccn2)CC1 [Compound 176] |
